Reference: patent US10342697B2, “Systems and methods for delivering drugs to an eye” (Avedro, Inc., priority 2016, dated 2019)
Entries after “also recorded” stand apart in the source; their conditions may differ.

Assays:
[1] = system: pig eyes with intact epithelium; assay: Relative fluorescence F/Fo of cross-linked corneal flaps, Polidocanol vs BAC riboflavin solutions (Study 4); conditions: 20 min soak, 30 mW/cm^2, FIGS. 7-15
Description: The epitheliums of eyes in Group A were removed with a dull blade after the eyes were soaked in one of the solutions and irradiated pan-corneally on air with a top hat beam (3% root mean square) for 4 minutes with 365-nm light source (UV LED NCSU033B[T]; Nichia Co., Tokushima, Japan) at a chosen irradiance of 30 mW/cm^2 which was measured with a power sensor (model PD-300-UV; Ophir, Inc., Jerusalem, Israel) at the corneal surface. Corneal flaps (approximately 200 μm thick) were excised from the eyes with aid of an Intralase femtosecond laser (Abbot Medical Optics, Santa Ana, Calif.). The average thickness of the corneal flaps was calculated as a difference between the measurements before and after the excision from the eyes with an ultrasonic Pachymeter (DGH Technology, Exton, Pa.). The flaps were washed with distilled water and dried in a vacuum until the weight change became less than 10% (Rotary vane vacuum pump RV3 A652-01-903, BOC Edwards, West Sussex, UK). […] Papain digests were diluted 0.5 times with 1×BBBS and fluorescence of the solutions was measured with excitation of 360 nm in a QM-40 Spectrofluorometer (Photon Technology Int., London, Ontario, Canada). The fluorescence of the papain buffer was taken into account by measuring fluorescence in the absence of tissue and subtracting this value from the fluorescence of the samples. […]

epithelium = assay: Corrosiveness/damage to the epithelium; conditions: compared with BAC

## Polyoxyethylene (9) lauryl ether [Polidocanol]
[1]
  enhancing permeability in the epithelium and generating cross-linking activity: more effective than many other surfactants; also recorded: far more effective and efficient than BAC
epithelium
  corrosive and damaging to the epithelium: less corrosive and damaging to the epithelium than BAC
